For 25 molecules, EC50 results are on record in patent publication EP2969029B1, “USE OF COSMETICALLY OR DERMATOLOGICALLY SAFE SUBSTITUTED MICHAEL ACCEPTORS FOR THE PREVENTION, REDUCTION OR PROPHYLAXIS OF THE TYROSINASE ACTIVITY OF THE HUMAN SKIN AND/OR THE LIGHTENING OF THE HUMAN SKIN” (Beiersdorf AG, priority 2013, dated 2014).

The structures appear in SMILES notation.

In this experiment the target is T1, humane Tyrosinase (Homo sapiens, UniProt P14679).
T1 sequence (P14679 19-529): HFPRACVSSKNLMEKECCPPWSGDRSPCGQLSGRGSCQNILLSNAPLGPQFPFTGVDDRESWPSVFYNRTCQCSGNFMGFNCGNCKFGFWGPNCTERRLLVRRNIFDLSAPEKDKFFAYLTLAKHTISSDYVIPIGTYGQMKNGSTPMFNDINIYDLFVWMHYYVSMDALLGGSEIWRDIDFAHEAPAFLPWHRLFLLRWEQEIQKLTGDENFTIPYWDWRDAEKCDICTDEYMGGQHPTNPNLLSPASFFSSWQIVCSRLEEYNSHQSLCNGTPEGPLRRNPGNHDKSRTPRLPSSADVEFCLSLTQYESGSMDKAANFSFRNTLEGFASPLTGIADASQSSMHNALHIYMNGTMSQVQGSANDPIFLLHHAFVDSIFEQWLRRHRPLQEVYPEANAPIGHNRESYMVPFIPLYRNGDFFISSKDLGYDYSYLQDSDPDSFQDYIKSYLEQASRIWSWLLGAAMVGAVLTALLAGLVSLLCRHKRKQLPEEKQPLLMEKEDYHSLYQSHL
The experiment in a line: Enzyme test: conversion of L-DOPA to L-dopaquinone by human tyrosinase, MBTH detection, absorption at 490 nm. As to conditions: Inhibition der Tyrosinaseaktivität, substrate L-DOPA. Format: biochemical.
One may read the EC50 as the concentration needed to bring the measured effect to its halfway point. High values mean lower potency in that assay, low ones higher potency in that assay. In the case of `O=C(O)/C=C/c1ccco1` [(E)-3-(furan-2-yl)acrylsäure], the EC50 came to 166 µM.
Molecule `O=C(O)/C=C/c1cccnc1` [(E)-3-(pyridin-3-yl)acrylsäure] registered a 50% effective concentration (EC50) of 634 µM.
For `C=COC(=O)C=Cc1ccccc1` [Vinyl cinnamat], the EC50 worked out at 2610 µM.
For the molecule `O=C(O)/C=C/c1cccs1` [(E)-3-(thiophen-2-yl)acrylsäure], it took 32 µM to reach a half-maximal effect (EC50).
`CC1CCC(=CC(=O)O)CC1` (stereo not shown) [2-(4-Methyl-1-cyclohexyliden)essigsäure] came in with an EC50 of 6540 µM.
Consider `O=C(OCc1ccccc1)c1ccccc1` [Benzyl benzoat], for which the EC50 turned out to be 998 µM.
Under `C/C=C/C=C/C(=O)O` [Kaliumsorbat] stands 1530 µM.
The same measure for `O=C(C=Cc1ccccc1)OCc1ccccc1` [Benzyl cinnamat]: 260 µM; for `COC(=O)c1cc(O)ccc1O` [Methyl 2,5-Dihydroxybenzoat]: 2450 µM; for `O=C(O)/C=C/c1ccncc1` [(E)-3-(pyridin-4-yl) acrylsäure]: 697 µM.
Under `CCOC(=O)C=Cc1ccccc1` [Ethyl cinnamat] stands 2590 µM.
On to `O=C(O)/C=C/c1ccc(O)c(O)c1` [(E)-3-(3,4-dihydroxyphenyl)acrylsäure], for which a half-maximal response (EC50) required 1370 µM.
Consider `COc1ccc(C(=O)/C=C(\O)c2ccc(C(C)(C)C)cc2)cc1` [(Z)-3-(4-(tert-butyl)phenyl)-3-hydroxy-1-(4-methoxyphenyl)prop-2-en-1-on], for which the EC50 stood at 1550 µM.
In turn, `O=C(OC1CCCCC1)c1ccccc1O` [Cyclohexyl 2-hydroxybenzoat] yielded an EC50 of 547 µM.
Turning to `O=C(/C=C/c1ccc(O)cc1)NCCc1c[nH]c2ccc(O)cc12` [(E)-N-(2-(5-hydroxy-1H-indol-3-yl)ethyl)-3-(4-hydroxyphenyl)acrylamid], the midpoint of the response, the EC50, lay at 515 µM.
Under `COc1cc(/C=C/C(=O)O)ccc1O` [trans-Ferulasäure] stands 2210 µM; under `CCCc1c[nH]c(=S)[nH]c1=O` [5-Propyl-2-thioxo-2,3-dihydropyrimidin-4(1H)-on], 494 µM.
Under `CCCCCCOC(=O)c1ccccc1O` [Hexyl 2-hydroxybenzoat] stands 4230 µM.
For `O=C(O)c1ccccc1` [Natrium Benzoat], the EC50 is 1440 µM.
`O=CC=Cc1ccccc1` [Zinnamaldehyd] yielded an EC50 of 211 µM.
The same measure for `C=CCOC(=O)C=Cc1ccccc1` [Allyl cinnamat]: 2340 µM; for `COc1ccc(C=CC(=O)OCCC(C)C)cc1` [Isoamyl p-Methoxycinnamat]: 358 µM; for `COc1ccc(C(=O)O)c(O)c1` [2-Hydroxy-4-methoxy Benzoesäure]: 2660 µM.
`O=C(OCc1ccccc1)c1ccccc1O` [Benzyl 2-hydroxybenzoat] showed an EC50 of 378 µM.
Consider `O=C(O)/C=C/c1c[nH]c2ccccc12` [(E)-3-(1H-indol-3-yl)acrylsäure], for which the EC50 is 833 µM.
